# Measured values reported in patent US6908907B2, “Prevention and treatment of tumor growth, metastasis, and thromboembolic complications in cancer patients” (priority 2002, dated 2005).
# Assays:
# [1] = test system: B16 melanoma; assay: B16 melanoma injectable model of experimental lung metastasis; assay type: in vivo, mice; settings: 700 ng i.v. 5 minutes prior to tumor cell injection
# Description: (§1) Tinzaparin is a low molecular weight heparin that is produced by heparinase depolymerization of unfractionated heparin allowing for its relatively high sulfate to carboxylate ratio. Beyond its potent plasmatic effects on ATIII-dependent coagulation factors, Tinzaparin is a very effective LMWH in causing the release of TFPI from the endothelial cells, the natural inhibitor of tissue factor pro-coagulant and non-coagulant effects. The present study was undertaken to investigate the effect of the LMWH, Tinzaparin as well as recombinant TFPI on experimental lung metastasis. […] In a second experimental group, in addition to the initial (pre-tumor cell) dose, subcutaneous Tinzaparin (10 mg/kg) was administered daily for 14 days at which time lung seeding was assessed. In the latter group, lung tumor formation was reduced by 96% (P<0.001). […] In order to determine the anticoagulant activity of Tinzaparin, 4 hrs after a single subcutaneous dose, whole blood re-calcification was measured using a Sonoclot Analyzer. Tinzaparin (10 mg/kg S.C.) prolonged the clotting time 4 fold. Furthermore, measuring the platelet count (a sensitive marker of intravascular coagulation) before and 15 minutes determined the effect of Tinzaparin on tumor cell-induced clotting activation in vivo after tumor cell injection in control and Tinzaparin-treated animals. […]
# [2] = test system: tumor cell-induced thrombocytopenia; assay: Tumor cell-induced clotting activation in vivo (platelet count); design: species or system mice; settings: 700 ng i.v. 5 minutes prior to tumor cell injection
# Description: as §1
# [3] = test system: endothelial cell tube formation; settings: concentration-dependent; cited from earlier work
# [4] = test system: colon carcinoma (HCT-116); settings: CAM model; cited from earlier work
substance,measurement,setting,value
r-TFPI: recombinant tissue factor pathway inhibitor,reduction of B16 lung metastasis,[1],85%
same,effect on tumor cell induced thrombocytopenia,[2],abolished tumor cell induced thrombocytopenia
same,effect on endothelial cell tube formation,[3],significant and comparable inhibitory effects
same,"inhibition of colon or lung carcinoma-induced angiogenesis, tumor growth and regression",[4],significant inhibition
